Assay results reported in patent publication US20080045564A1 (priority 2006, published 2008).

What was measured:
[1] = system: CYP2B6
[2] = system: human CYP1A1; conditions: due to increased mRNA expression levels; Bapiro et al.; cited from earlier work

Compound | induction of CYP2B6 by reference inducer ([1]; 1 mM Phenobarbital, each hepatocyte donor) | induction of human CYP1A1 activity [2] | induction of CYP2B6 activity (statistical significance, summary over three donors) ([1]; hepatocytes)
CCC1(c2ccccc2)C(=O)NC(=O)NC1=O [Phenobarbital] | statistically significant amount of induction |  | 
C=C[C@H]1C[N@@]2CC[C@H]1C[C@H]2[C@H](O)c1ccnc2ccc(OC)cc12 [quinine, cinchonan-9-ol, 6′-methoxy-, (8a,9R)-] |  | induced | an inducer
